Among the test systems are SK-MEL-2; HOP-62; MDA-N; IGROV-1; K562; OVCAR-3; NCI-H522; MOLT-4; UACC-257; SW-620; CAKI-1; HOP-92; U-251; CCRF-CEM.
Holding throughout (experiment): growth of human tumour cells (NCI), 48 h

SMILES strings stand for the structures.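 Grown in 96-well plates, cells were treated for 48 hours with each compound at five concentrations. Insufficient inhibition: endpoint recorded as highest concentration tested. At the GI50, growth is halved.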 Calls of active or inactive are those of the source. Rule as the data show it: active = GI50 up to about 1.1 µM and inactive = higher. Some results are limits rather than exact numbers.

With `CCOC(=O)Nn1c(CC#N)nnc1Cc1ccccc1`, the GI50 in the assay on SK-MEL-2, in the assay on HOP-62, in the assay on MDA-N, in the assay with IGROV-1, in the assay on K562 and with OVCAR-3 was > 100 µM (inactive) throughout. The GI50 in the assay with NCI-H522, in the assay with MOLT-4, in the assay on UACC-257, with SW-620, in the assay on CAKI-1 and in the assay with HOP-92 was > 100 µM (inactive) each time. The GI50 with U-251 is > 100 µM (inactive).

For `CCOC(=O)c1c(N2CCCC2)[nH]c(=O)c(C(c2c(O)c(C(=O)OCC)c(N3CCCC3)[nH]c2=O)C(C)C)c1O`, the GI50 in the assay with HOP-62 is 94.4 µM (inactive); in the assay with MDA-N it was > 100 µM (inactive); in the assay with CCRF-CEM, > 100 µM (inactive); in the assay with K562, > 100 µM (inactive); in the assay with OVCAR-3, > 100 µM (inactive); in the assay with NCI-H522, 43.5 µM (inactive). For the same compound, the GI50 was > 100 µM (inactive) with MOLT-4; > 100 µM (inactive) in the assay on UACC-257; > 100 µM (inactive) with SW-620; 48 µM (inactive) in the assay with CAKI-1; 28.7 µM (inactive) with HOP-92; 37.8 µM (inactive) in the assay with U-251.

On to `C/C(=C/CC[C@](C)(OC1OC(CO)C(O)C(O)C1O)[C@H]1CC[C@]2(C)[C@@H]1CC[C@@H]1[C@@]3(C)CC[C@H](O)C(C)(C)[C@@H]3C[C@H](O)[C@]12C)CO` (some centres not stated), for which the GI50 in the assay with HOP-62 was 26.3 µM (inactive); in the assay on MDA-N, 24.2 µM (inactive); with IGROV-1 it was 38 µM (inactive); in the assay with CCRF-CEM, 27.9 µM (inactive); with K562 it was 13.4 µM (inactive); in the assay with OVCAR-3, 24.2 µM (inactive). For the same compound, the GI50 in the assay with NCI-H522 was 17.9 µM (inactive); in the assay on MOLT-4, 12.2 µM (inactive); with UACC-257 it was 22.6 µM (inactive); with SW-620, 27.4 µM (inactive); in the assay with CAKI-1, 31.7 µM (inactive); in the assay on HOP-92, 27.4 µM (inactive). Also, the GI50 in the assay with U-251 is 13.6 µM (inactive).

With `COc1cc(OC)c(OC)cc1/C=C/c1cc[n+](C)c2ccccc12`, the GI50 is 4.89 µM (inactive) in the assay with HOP-62; 24.3 µM (inactive) with MDA-N; 40 µM (inactive) in the assay with IGROV-1; 14.8 µM (inactive) in the assay with CCRF-CEM; 3.07 µM (inactive) in the assay with K562; 21.2 µM (inactive) with MOLT-4. Further, the GI50 with UACC-257 was 16.1 µM (inactive); in the assay on SW-620 it was 36.2 µM (inactive); in the assay on CAKI-1, > 100 µM (inactive); in the assay with HOP-92, 23.9 µM (inactive); in the assay on U-251 it was 5.02 µM (inactive).

As to `CC1(C)CC(=O)c2[nH]c3ccccc3c2CC(=O)NCCc2cn1cn2`, the GI50 with SK-MEL-2, with MDA-N, with IGROV-1, with K562, in the assay with OVCAR-3 and in the assay with NCI-H522 was > 100 µM (inactive) throughout. Besides, the GI50 in the assay with MOLT-4 was > 100 µM (inactive); in the assay with UACC-257 it was > 100 µM (inactive); in the assay with SW-620, > 100 µM (inactive); with CAKI-1, > 100 µM (inactive); in the assay on HOP-92 it was 36.5 µM (inactive); with U-251, 56.6 µM (inactive).

On to `CC(=O)NC1C(OCc2ccccc2)OC(CO)C(O)C1OC(C)C(=O)NC(C(=O)N[C@@H](CCC(=O)NCCNCCNc1c2ccccc2nc2cccc([N+](=O)[O-])c12)C(N)=O)C(C)C` (some centres not stated), for which the GI50 with SK-MEL-2 was 20 µM (inactive); in the assay on HOP-62, 30.1 µM (inactive); in the assay on MDA-N it was 20.1 µM (inactive); in the assay with IGROV-1 it was 33.6 µM (inactive); with CCRF-CEM, 17.8 µM (inactive); in the assay on K562, 0.0158 µM (active). In addition, the GI50 with OVCAR-3 is 25.8 µM (inactive); in the assay with MOLT-4, 23.6 µM (inactive); in the assay on SW-620 it was 13.2 µM (inactive); in the assay on CAKI-1 it was 30.3 µM (inactive); with HOP-92 it was 18.2 µM (inactive); in the assay on U-251, 65.8 µM (inactive).

Turning to `CC(=O)OCCn1cnc2c(NCC=C(C)C)ncnc21`, the GI50 in the assay on HOP-62, in the assay with MDA-N, in the assay with IGROV-1, with CCRF-CEM, in the assay with K562 and with OVCAR-3 was > 100 µM (inactive) in each case. The GI50 with NCI-H522, in the assay on MOLT-4, in the assay with UACC-257, in the assay with SW-620, in the assay with CAKI-1 and with HOP-92 was > 100 µM (inactive) throughout.

For `C/C(=N\n1c(Cc2ccccc2)n[nH]c1=O)c1ccc([N+](=O)[O-])cc1`, the GI50 with SK-MEL-2 was > 100 µM (inactive); in the assay with HOP-62, 49.2 µM (inactive); in the assay on MDA-N it was > 100 µM (inactive); with IGROV-1, > 100 µM (inactive); in the assay on K562, > 100 µM (inactive); in the assay with OVCAR-3, > 100 µM (inactive). The GI50 in the assay with NCI-H522 was > 100 µM (inactive); in the assay on MOLT-4, 52.8 µM (inactive); with UACC-257 it was > 100 µM (inactive); with SW-620 it was > 100 µM (inactive); in the assay with CAKI-1 it was 78.5 µM (inactive); with HOP-92, 25.6 µM (inactive). Also, the GI50 in the assay with U-251 is > 100 µM (inactive).

On to `Cc1cn(CCCCC2=NCCCN2)c(=O)[nH]c1=O`, for which the GI50 was > 26.9 µM (inactive) in the assay with SK-MEL-2; > 46.6 µM (inactive) in the assay on HOP-62; > 100 µM (inactive) in the assay on MDA-N; > 26.5 µM (inactive) in the assay with IGROV-1; > 24.6 µM (inactive) in the assay on K562; > 26.7 µM (inactive) in the assay on OVCAR-3. The GI50 in the assay with NCI-H522 is > 30.8 µM (inactive); in the assay on MOLT-4, > 26.7 µM (inactive); with UACC-257 it was > 26.2 µM (inactive); with SW-620 it was > 28.3 µM (inactive); in the assay with CAKI-1 it was > 15.1 µM (inactive); with HOP-92, 3.66 µM (inactive). In addition, in the assay on U-251, the GI50 was > 30.5 µM (inactive).

With `COc1ccc(-n2nnc(C(N)=O)c2O)cc1`, the GI50 in the assay with SK-MEL-2, with HOP-62, with MDA-N, in the assay with IGROV-1, with CCRF-CEM and in the assay on K562 was > 100 µM (inactive) in each case. Also, the GI50 in the assay with OVCAR-3 is 0.0187 µM (active); with NCI-H522, > 100 µM (inactive); with MOLT-4, > 100 µM (inactive); with UACC-257, > 100 µM (inactive); in the assay on SW-620, > 100 µM (inactive); with CAKI-1, > 100 µM (inactive). The GI50 with U-251 was > 100 µM (inactive).

For the compound `CC(=O)Oc1c2oc3cc(O)c(O)cc3c2c(OC(C)=O)c2oc3cc(O)c(O)cc3c12` [POLYOZELLIN], the GI50 with SK-MEL-2 is 20.5 µM (inactive); in the assay on HOP-62, 16.1 µM (inactive); in the assay on MDA-N, 23.6 µM (inactive); with IGROV-1, 18.2 µM (inactive); with CCRF-CEM, 2.57 µM (inactive); with K562, 19.1 µM (inactive). Also, the GI50 in the assay on OVCAR-3 is > 10 µM (inactive); with NCI-H522 it was 10.3 µM (inactive); in the assay with MOLT-4, 2.64 µM (inactive); with UACC-257, 19.4 µM (inactive); with SW-620 it was 23.2 µM (inactive); in the assay with CAKI-1, 29.2 µM (inactive). Besides, the GI50 in the assay with U-251 was 1.56 µM (inactive).
